The values that follow come from ChEMBL document CHEMBL1127907, “Design of a potent 5-HT4 receptor agonist with nanomolar affinity” (Bioorg Med Chem Lett, 1994).

The target in assay [1] is 5-hydroxytryptamine receptor 4 (Cavia porcellus) (UniProt O70528). Kind of assay: 5-hydroxytryptamine 4 receptor agonist activity as percent maximum 5-HT effect in response to electrical stimulation in male guinea pig ileum. Type of assay: functional, tissue-based.
Assay [2] has as its target T1, 5-hydroxytryptamine receptor 4 (Rattus norvegicus, UniProt Q62758). Nature of the assay: Binding affinity against 5-hydroxytryptamine 4 receptor using [3H]GR-113808 as radioligand in rat striatum. Type of assay: tissue-based.
For assay [3], the target named is T2, 5-hydroxytryptamine receptor 4 (Cavia porcellus, UniProt O70528). Kind of assay: 5-hydroxytryptamine 4 receptor agonist activity as increased response to electrical stimulation in guinea pig ileum. The assay is classed as functional, tissue-based.
T2 sequence (O70528 whole entry): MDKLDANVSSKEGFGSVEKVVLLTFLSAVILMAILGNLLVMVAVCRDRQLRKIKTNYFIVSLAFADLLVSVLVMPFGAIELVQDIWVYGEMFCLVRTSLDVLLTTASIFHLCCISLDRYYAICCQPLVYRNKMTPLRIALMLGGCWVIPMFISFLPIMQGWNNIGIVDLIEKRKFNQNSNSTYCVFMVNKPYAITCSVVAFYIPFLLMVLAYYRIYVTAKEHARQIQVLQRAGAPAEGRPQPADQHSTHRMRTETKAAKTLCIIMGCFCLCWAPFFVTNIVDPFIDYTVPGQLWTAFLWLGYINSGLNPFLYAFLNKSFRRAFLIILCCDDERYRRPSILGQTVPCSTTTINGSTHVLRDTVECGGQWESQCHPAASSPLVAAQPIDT
The target in assay [4] is T3, Serotonin 3 (5-HT3) receptor (Rattus norvegicus, UniProt P35563+Q9JJ16).
T3 sequence (P35563 whole entry): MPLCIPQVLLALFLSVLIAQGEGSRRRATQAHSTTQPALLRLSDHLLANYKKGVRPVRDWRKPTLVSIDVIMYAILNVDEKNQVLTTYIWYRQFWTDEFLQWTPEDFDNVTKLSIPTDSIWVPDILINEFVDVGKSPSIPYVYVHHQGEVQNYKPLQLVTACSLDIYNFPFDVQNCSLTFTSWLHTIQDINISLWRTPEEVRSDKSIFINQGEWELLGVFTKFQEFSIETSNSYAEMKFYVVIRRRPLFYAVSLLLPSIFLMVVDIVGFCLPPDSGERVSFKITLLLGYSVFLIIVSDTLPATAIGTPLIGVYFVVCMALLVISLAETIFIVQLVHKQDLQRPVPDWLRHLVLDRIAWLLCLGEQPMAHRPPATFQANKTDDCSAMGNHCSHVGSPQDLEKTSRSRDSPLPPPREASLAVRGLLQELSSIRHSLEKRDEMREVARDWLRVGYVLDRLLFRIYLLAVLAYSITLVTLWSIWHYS
T3 sequence (Q9JJ16 whole entry): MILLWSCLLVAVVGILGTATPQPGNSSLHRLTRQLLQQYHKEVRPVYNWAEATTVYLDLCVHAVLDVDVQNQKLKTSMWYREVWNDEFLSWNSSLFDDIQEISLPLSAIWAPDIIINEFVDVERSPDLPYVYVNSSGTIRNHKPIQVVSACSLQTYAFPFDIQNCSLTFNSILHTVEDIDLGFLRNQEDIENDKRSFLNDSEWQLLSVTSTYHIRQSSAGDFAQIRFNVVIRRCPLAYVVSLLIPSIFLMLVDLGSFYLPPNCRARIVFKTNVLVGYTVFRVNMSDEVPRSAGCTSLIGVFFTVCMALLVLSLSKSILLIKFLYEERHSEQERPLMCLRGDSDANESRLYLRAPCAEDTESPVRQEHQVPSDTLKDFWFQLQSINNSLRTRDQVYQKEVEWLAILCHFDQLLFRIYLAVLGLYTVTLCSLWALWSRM
Nature of the assay: Binding affinity against 5-hydroxytryptamine 3 receptor using [3H]BRL-43694 in rat posterior cortex. Type of assay: tissue-based.

Assay [5] addresses T2, 5-hydroxytryptamine receptor 4. Kind of assay: 5-hydroxytryptamine 4 receptor antagonist activity expressed as the concentration which produced a 50% reduction of 5-HT induced contraction in guinea pig ileum; Not evaluable. Type of assay: functional, tissue-based.
Assay [6] has the same target. Kind of assay: 5-hydroxytryptamine 4 receptor antagonist activity expressed as the concentration which produced a 50% reduction of 5-HT induced contraction in guinea pig ileum. The assay is classed as functional, tissue-based.
Assay [7] has as its target T1, 5-hydroxytryptamine receptor 4. Nature of the assay: 5-hydroxytryptamine 4 receptor agonist activity was determined by the relaxation of the carbachol-contracted rat esophageal tunica muscularis mucosae. Type of assay: functional.

T1 sequence (Q62758 whole entry): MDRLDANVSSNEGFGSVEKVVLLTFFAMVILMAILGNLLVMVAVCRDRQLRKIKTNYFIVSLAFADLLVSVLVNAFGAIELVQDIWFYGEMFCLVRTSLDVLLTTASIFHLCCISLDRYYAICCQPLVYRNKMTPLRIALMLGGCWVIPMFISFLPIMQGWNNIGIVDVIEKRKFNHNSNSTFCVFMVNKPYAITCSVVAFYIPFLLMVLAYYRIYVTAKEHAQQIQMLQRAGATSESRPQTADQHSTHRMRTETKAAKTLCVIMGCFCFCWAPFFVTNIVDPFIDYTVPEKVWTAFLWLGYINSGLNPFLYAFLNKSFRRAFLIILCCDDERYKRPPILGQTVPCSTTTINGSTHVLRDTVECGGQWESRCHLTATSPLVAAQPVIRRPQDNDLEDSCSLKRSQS
Sequence of 5-hydroxytryptamine receptor 4 (Cavia porcellus) (O70528 whole entry): as the sequence (O70528 whole entry) above

Turning to `NCCc1c[nH]c2ccc(O)cc12`, the Activity in assay [1] was 100%.

A word on the Ki: it is the dissociation constant of the complex between target and ligand, obtained from inhibition or displacement. A lower Ki goes with tighter binding. What is called EC50 is the midpoint of the concentration-response curve. For orientation: IC50 means the concentration at which inhibition is half-maximal. As for `CCN(CC)CCOC(=O)c1cc(Cl)c(N)cc1OC`, the Ki worked out at 5.3 nM in assay [2] and 205 nM in assay [4]. In assay [3], this compound came in with a concentration for a half-maximal effect (EC50) of more than 1000 nM. This compound came in with a half-maximal inhibitory concentration (IC50) in assay [5] of 77 nM.

Regarding `COc1cc(N)c(Cl)cc1C(=O)NC1CN2CCC1CC2` (centres undefined) [ZACOPRIDE], the Ki in assay [2] worked out at 753 nM; in assay [4], 0.7 nM. Besides, in assay [3], a half-maximal effect (EC50) was put at 260 nM.

In the case of `COc1cc(N)c(Cl)cc1C(=O)OC1CC2CCC(C1)N2C` (centres undefined), the Ki in assay [2] is 64.3 nM; in assay [4], 3.2 nM. Also, a half-maximal effect in assay [3] (EC50) was put at 27 nM. The compound also yielded an Activity in assay [1] of 54%.

As to `COc1cc(N)c(Cl)cc1C(=O)OC1CCN(C)CC1`, the Ki in assay [2] turned out to be 23 nM; in assay [4], 72 nM. The compound further returned an EC50 in assay [3] of 110 nM. Moreover, the IC50 in assay [6] is 60 nM. For the same compound, the Activity in assay [1] was found to be 53%.

As to `COc1cc(N)c(Cl)cc1C(=O)OCCN1CCCCC1`, in assay [7], the IC50 was 2.4 nM. Further, the Ki in assay [2] was 1.07 nM; in assay [4] it was 782 nM. The compound further yielded an Activity in assay [1] of 80%.

`CCN(CC)CCNC(=O)c1cc(Cl)c(N)cc1OC` [METOCLOPRAMIDE]: in assay [4], the affinity, expressed as Ki, was 443 nM. This lies in the sub-micromolar range.

On to `CCN1CCCC(OC(=O)c2cc(Cl)c(N)cc2OC)C1` (centres undefined), for which the inhibition constant (Ki) in assay [2] turned out to be 34.5 nM. Moreover, in assay [3], a half-maximal effect (EC50) was put at 44 nM. In assay [1], this compound showed an Activity of 79%.

Turning to `CCN1CCC(OC(=O)c2cc(Cl)c(N)cc2OC)CC1`, the Ki was determined as 10.3 nM in assay [2] and 118 nM in assay [4]. The same compound came in with an EC50 in assay [3] of 22 nM. Also, the Activity in assay [1] was 60%.
